In assay [1] the target is Egl nine homolog 1 (Homo sapiens) (UniProt Q9GZT9). Kind of assay: Inhibition of PHD2 at 1 mM by HTRF assay. (In general: In TR-FRET formats the signal depends on donor and acceptor labels being close together.)
A further assay addresses Prolyl hydroxylase EGLN2 (Homo sapiens, UniProt Q96KS0). Kind of assay: Inhibition of PHD1 by HTRF assay.
Assay [2] is described as follows: Inhibition of FIH by HTRF assay.

Active and inactive are the calls of the source. No cut-off for these calls is given here. Some results are limits rather than exact numbers.

Chain of Egl nine homolog 1 (Homo sapiens) (Q9GZT9 2-426 limits assumed): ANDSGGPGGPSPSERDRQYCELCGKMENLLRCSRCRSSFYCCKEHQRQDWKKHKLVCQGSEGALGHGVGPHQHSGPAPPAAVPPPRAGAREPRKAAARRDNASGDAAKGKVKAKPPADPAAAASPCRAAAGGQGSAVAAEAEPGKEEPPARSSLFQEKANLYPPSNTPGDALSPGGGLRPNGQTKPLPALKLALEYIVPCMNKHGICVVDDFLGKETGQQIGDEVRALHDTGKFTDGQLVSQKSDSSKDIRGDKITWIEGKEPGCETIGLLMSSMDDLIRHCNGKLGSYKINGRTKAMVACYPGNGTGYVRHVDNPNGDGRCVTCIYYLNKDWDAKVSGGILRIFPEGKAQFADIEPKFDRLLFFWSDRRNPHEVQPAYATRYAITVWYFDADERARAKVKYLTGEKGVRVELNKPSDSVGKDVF
Chain of Prolyl hydroxylase EGLN2 (Q96KS0 whole entry): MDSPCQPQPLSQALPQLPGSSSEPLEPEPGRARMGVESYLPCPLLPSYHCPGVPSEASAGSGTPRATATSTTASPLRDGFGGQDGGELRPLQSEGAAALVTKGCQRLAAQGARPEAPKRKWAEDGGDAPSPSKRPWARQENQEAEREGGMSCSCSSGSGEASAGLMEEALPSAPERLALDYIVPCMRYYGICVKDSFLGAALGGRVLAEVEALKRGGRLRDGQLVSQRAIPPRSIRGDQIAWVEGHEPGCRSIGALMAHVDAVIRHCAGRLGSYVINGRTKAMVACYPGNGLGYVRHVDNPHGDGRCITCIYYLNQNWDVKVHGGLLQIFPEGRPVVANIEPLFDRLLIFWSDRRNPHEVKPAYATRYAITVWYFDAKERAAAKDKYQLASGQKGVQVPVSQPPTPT

For `O=C(NO)c1cccc(O)c1`, in assay [1], the inhibition entry was “inactive”. A word on the IC50: it is the concentration needed to halve the response being measured. A lower IC50 goes with greater potency in that assay. As to `O=C(O)C(S)c1cccc(O)c1` (stereo not drawn), in assay [1], the inhibition result was “inactive”. In addition, the IC50 on Prolyl hydroxylase EGLN2 amounted to 500 µM.

For the compound `O=C(O)c1ccnc(C(=O)O)c1`, the inhibition entry in assay [1] was “inactive”. For the same compound, in assay [2], the inhibition entry was “Active”. Moreover, half-maximal inhibition on Prolyl hydroxylase EGLN2 (IC50) required 625 µM.

Turning to `O=C(O)CNC(=O)c1ccccn1`, in assay [1], the inhibition result was “inactive”. In addition, the IC50 against Prolyl hydroxylase EGLN2 is > 1000 µM. The matching figures for `O=C(O)C(=O)c1cccc(O)c1`: “inactive” and > 1000 µM. For the compound `O=C(O)CNC(=O)c1ccccc1O` [SALICYLURIC ACID], the IC50 on Prolyl hydroxylase EGLN2 was > 1000 µM. As to `O=C(O)CNC(=O)c1ncccc1O`, the inhibition result in assay [1] is “inactive”. The compound further displayed an IC50 against Prolyl hydroxylase EGLN2 of 91.1 µM.

(Values after ChEMBL document CHEMBL1255189, “Structural basis for binding of cyclic 2-oxoglutarate analogues to factor-inhibiting hypoxia-inducible factor” (Bioorg Med Chem Lett, 2010).)
